Assay results reported in patent US20160123960A1, “METHOD FOR PREPARING THREE-DIMENSIONAL, ORGANOTYPIC CELL CULTURES AND USES THEREOF” (priority 2013, published 2016).

Tests used:
T47D μOTOCs = test: 18F-FDG uptake in μOTOCs by Cerenkov Luminescence Imaging, T47D; assay type: cell-based; settings: 250 μM, 24 hrs, CLI
Experimental: (§1) Cobalt chloride (CoCl2) is known to cause an increase in 18F-FDG uptake in cells treated /over 24 hours. As such, 250 μM CoCl2 was used to test whether μTOCs could be imaged.
(§2) μOTOCs of H1048 (small cell lung carcinoma) and T47D (mammary gland; ductal carcinoma) cells were generated using the method described in Example 1.
(§3) On Day 3 post seeding/creation of the OTOCs (i.e, after forming the μOTOCs in oil then transferring to T75 flask for 3 days of culture), the μOTOCs were transferred one at a time via pipette into a 96 well plate (1 μOTOC/well). 250 μM CoCl2 was added to each well. Cerenkov Luminescence Imaging was used to monitor the FDG response in vitro.

H1048 μOTOCs = test: 18F-FDG uptake in μOTOCs by Cerenkov Luminescence Imaging, H1048; assay type: cell-based; settings: 250 μM, 24 hrs, CLI
Experimental: as §1, §2, §3

HT-29 OTOCs = test: 18F-FDG uptake in OTOCs by Cerenkov Luminescence Imaging, HT-29; assay type: cell-based; settings: 700 ng/ml, 24 hr time point, CLI
Excerpt: (§4) The objective of this study was to monitor radio-labeled compound uptake in vitro using the OTOC system described herein. Three tumor cell lines (HT-29 (colon tumor cell line), HCT-116 (colon tumor cell line), and H460 (lung tumor cell line) were used to generate OTOCs in order to test the effects of FDG uptake after drug treatment with MLN9708, a proteasome inhibitor. OTOCs for each cell line were transferred to 6 well plates, respectively, with 6 OTOCs/well.
(§5) An in vitro dosage of MLN9708 was extrapolated from historical in vivo PK studies for this compound. A 700 ng/ml concentration was decided upon and used in the OTOC studies described herein (derived from the mean tumor concentration achievable with a standard dose of MLN9708 (11 mg/kg PK dose, IV)).
(§6) The imaging modality Cerenkov Luminescence Imaging (CLI, Robertson et al. (2009) Phys. Med. Biol. 54:N355-N365) was used to monitor the FDG response in vitro.
(§7) The cell line HT-29 (KRAS WT) is known to be responsive to MLN9708 in vivo (t/c <0.3), while HCT-116 and H460 (both KRAS mutants) have shown resistance to proteasome inhibition (data not shown). OTOCs were imaged via CLI at 24, 48, 72, 96 hours post compound administration.

H460 OTOCs = test: 18F-FDG uptake in OTOCs by Cerenkov Luminescence Imaging, H460; assay type: cell-based; settings: 700 ng/ml, 24 hr time point, CLI
Excerpt: as §4, §5, §6, §7

HCT-116 OTOCs = test: 18F-FDG uptake in OTOCs by Cerenkov Luminescence Imaging, HCT-116; assay type: cell-based; settings: 700 ng/ml, 24 hr time point, CLI
Excerpt: as §4, §5, §6, §7

HT-29 (KRAS WT) = test: In vivo response of HT-29 (t/c); settings: HT-29 in vivo
[1] = tested on: HCT-116 (HCT-116-Luc) OTOCs; settings: repeated experiment, newly generated HCT-116 OTOCs and InSphero spheroids
Experimental: 24 OTOCs were removed and placed in a 6-well plate, 4 OTOCs/well on day 3 post OTOC seeding/creation.
At 4 days post drug administration all OTOC's were collected for viability measurement to look at growth kinetics and drug resistance to STP.
Each OTOC was placed in a glass test tube with several glass beads. Approximately 800 of PBS was added to test tube and the tube was vortexed for 2-3 min to disrupt the OTOC. After vortexing each test tube was placed on ice until sampling. A black 96 well plate was used for the samples. For each lane 100 μl of the OTOC solution was placed in each well (8 wells/800 (total)/OTOC) until all OTOCs samples were completed. 100 μl of Celltiter glow was added to each well and the plates were rested for 10 min before reading. IVIS Spectrum was run on Auto exposure for each plate and the Living Image analysis program was used to determine Radiance/per well. Lanes were added up and group average and error was determined.
The same conditions that were use in the previous InSphero experiment (in regards to dose and timing) were used in this experiment.

HCT-116 spheroids = test: InSphero assay (hanging drop spheroids), HCT-116; settings: Homo sapiens
Excerpt: This experiment that was undertaken was to determine if there was an increase in the resistance of known drug in comparison of the spheroid culture to OTOC format. The same conditions that were use in the previous InSphero experiment (in regards to dose and timing) were used in this experiment.

`[Cl][Co][Cl]` [CoCl2, Cobalt chloride] was tested, and the “increase in FDG uptake” value (T47D μOTOCs) was 33.7% and the “increase in 18F-FDG uptake” value (H1048 μOTOCs) was 22.6%.

For `CC(C)C[C@H](NC(=O)CNC(=O)c1cc(Cl)ccc1Cl)B1OC(=O)C(CC(=O)O)(CC(=O)O)O1` [MLN9708], the “increased FDG uptake” value (HT-29 OTOCs) was 48%, the “FDG signal change from control” value (H460 OTOCs) was -10% and the FDG uptake response (HCT-116 OTOCs) was < 10%. For the same molecule, the t/c (HT-29 (KRAS WT)) was < 0.3.

For `CN[C@@H]1C[C@H]2O[C@@](C)([C@@H]1OC)n1c3ccccc3c3c4c(c5c6ccccc6n2c5c31)C(=O)NC4` [Staurosporine], the “greater resistance in OTOCs assay as compared to InSphero assay” value [1] was 1800 × and the IC50 (HCT-116 spheroids) was 37 nM.
